From US8546608B2, “Proteasome inhibitors and methods of using the same” (Cephalon, Inc., priority 2003, dated 2013)

What was measured:
[1] = target: T1, proteasome in Molt-4 cells (human leukemia) (Homo sapiens, UniProt P20618+P28074); type: cell-based; details: assay of Example E, inhibition of MOLT4; read-out: MOLT4 (EC50)
T1 sequence (P28074 60-263): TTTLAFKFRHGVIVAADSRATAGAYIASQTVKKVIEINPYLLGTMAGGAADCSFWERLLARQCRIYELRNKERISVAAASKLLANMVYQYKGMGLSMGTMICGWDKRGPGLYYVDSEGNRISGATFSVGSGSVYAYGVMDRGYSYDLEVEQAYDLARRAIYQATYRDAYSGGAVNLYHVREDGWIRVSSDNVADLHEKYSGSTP
T1 sequence (P20618 29-241): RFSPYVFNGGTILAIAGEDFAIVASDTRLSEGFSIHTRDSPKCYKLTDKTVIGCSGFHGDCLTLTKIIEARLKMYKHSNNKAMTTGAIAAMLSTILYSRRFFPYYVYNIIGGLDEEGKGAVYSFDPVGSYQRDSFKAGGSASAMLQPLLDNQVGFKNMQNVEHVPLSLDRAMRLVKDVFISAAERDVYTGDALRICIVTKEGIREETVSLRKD
Method: Cellular Assay for Chymotrypsin-like activity of Proteasome in Molt-4 Cell Line
The chymotrypsin-like activity of proteasome in Molt-4 cells (human leukemia) was assayed according to the following procedure. A brief description of the method was published previously (Harding et al., J. Immunol., 1995, 155, 1767).
Molt-4 cells were washed and resuspended in HEPES-buffered Saline (5.4 mM KCl, 120 mM NaCl, 25 mM Glucose, 1.5 mM MgSO4, 1 mM Na pyruvate, 20 mM Hepes) and plated in 96-well microtiter white plates to a final concentration of 6×10^6 cells/mL. Then various 5× proteasome inhibitor concentrations (or diluted DMSO for controls), prepared from 250×DMSO solutions by diluting 50-fold using HEPES-buffered saline, were added to the plate to a final 1× concentration. After 15 minutes incubation at 37° C., a fluorimetric cell permeable substrate (MeOSuc-FLF-AFC) (methoxysuccinyl-Phe-Leu-Phe-7-amido-4-trifluoromethylcoumarin) purchased from Enzyme Systems Products, catalogue number AFC-88, was added to each well at a final concentration of 25 μM from a stock solution of 20 mM in DMSO. Reaction volumes were 100 μl per well.
The concentration of free AFC was monitored every 1.5 min for 30 min ([…]) on a Polastar Optima, BMG Labtechnologies microplate reader, using an excitation wavelength of 390 nm and emission wavelength of 520 nm. Proteasome activity was determined under conditions in which substrate hydrolysis increased linearly with time and the change in fluorescent signal was proportional to the concentration of free AFC.
Determination of EC50 Values for Proteasome Inhibitors in MOLT-4 Cell Line
Inhibition of chymotrypsin-like activity of proteasome in Molt-4 cells was determined by incubating cells with various concentrations of putative inhibitors for 15 minutes at 37° C. prior to the addition of substrate. Each experimental condition was evaluated in triplicate, and replicate experiments were performed for the inhibitors described herein.

[2] = target: T2, 20S Human Erythrocyte Proteasome (HEP) (Homo sapiens, UniProt P20618+P28074); assay: Chymotrypsin-like activity of 20S Human Erythrocyte Proteasome (HEP), IC50 determination; type: biochemical; details: assay of Example C, inhibition of HEP
T2 construct: 20S Human Erythrocyte Proteasome (HEP), purchased from Immatics Biotechnologies Inc; purchased Immatics Biotechnologies Inc., Tübingen, Germany; host or cells: human erythrocytes (natural source)
Method: Assay for Chymotrypsin-like Activity of 20S Human Erythrocyte Proteasome (HEP)
Proteasome chymotrypsin-like activity of compounds of the invention was assayed according to the following procedure.
In 96-well microtiter plates, 20S Human Erythrocyte Proteasome (HEP), purchased from Immatics Biotechnologies Inc., Tübingen, Germany was plated at 0.2 μg/mL (about 0.6 nM catalytic sites) in 0.04% SDS 20 mM Tris buffer. A fluorimetric substrate Suc-LLVY-AMC (succinyl-Leu-Leu-Val-Tyr-7-amido-4-methylcoumarin), purchased from Sigma Inc., St. Louis, Mo., USA was added to a final concentration of 100 μM from a stock solution of 10 mM in dimethylsulfoxide. Reaction volumes were 100 μl per well. […] Proteasome activity was determined under conditions in which substrate hydrolysis increased linearly with time and the change in fluorescence signal was proportional to the concentration of free AMC.
Determination of IC50 Values for HEP and α-Chymotrypsin Inhibitors
Inhibition of the chymotrypsin-like activity of HEP and of bovine α-chymotrypsin was determined by incubating the enzyme with various concentrations of putative inhibitors for 15 minutes at 37° C. (or room temperature for α-chymotrypsin) prior to the addition of substrate. Each experimental condition was evaluated in triplicate, and replicate experiments were performed for the inhibitors described herein.

Compound | EC50 [1] [nM] | IC50 [2] [nM]
Boronic acid, [(1R)-1-[[(2S)-5- [[imino(nitroamino)methyl]amino]-2-[[(thiophene- 2-sulfonyl)acetyl]amino]-1-oxopentyl]amino]-3- methylbutyl] [E.2.69] | > 10000 | < 10
CC(C)C[C@H](NC(=O)[C@H](CCCNC(=N)N[N+](=O)[O-])NC(=O)CS(=O)(=O)c1ccccc1)B1O[C@@H]2C[C@@H]3C[C@@H](C3(C)C)[C@]2(C)O1 [D.3.185, 2-(Benzenesulfonyl)acetamide,N-[(1S)-1-[[[(1R)-1-[(3aS,4S,6S,7aR)-hexahydro-3a,5,5-trimethyl-4,6-methano-1,3,2-benzodioxaborol-2-yl]-3-methylbutyl]amino]carbonyl]-4-[[imino(nitroamino)methyl]amino]butyl]] | < 200 | < 10
CC(C)C[C@H](NC(=O)[C@H](CCCNC(=N)N[N+](=O)[O-])NC(=O)CCCCCCCc1ccccc1)B1O[C@@H]2C[C@@H]3C[C@@H](C3(C)C)[C@]2(C)O1 [D.3.117, 8-Phenyl-octanamide,N-[(1S)-1-[[[(1R)-1-[(3aS,4S,6S,7aR)-hexahydro-3a,5,5-trimethyl-4,6-methano-1,3,2-benzodioxaborol-2-yl]-3-methylbutyl]amino]carbonyl]-4-[[imino(nitroamino)methyl]amino]butyl]] | < 200 | < 10
CC(C)C[C@H](NC(=O)[C@H](CCCNC(=N)N[N+](=O)[O-])NC(=O)COc1ccc(C(C)C)cc1)B1O[C@@H]2C[C@@H]3C[C@@H](C3(C)C)[C@]2(C)O1 [D.3.54] | < 200 | < 10
CC(C)C[C@H](NC(=O)[C@H](CCCNC(=N)N[N+](=O)[O-])NC(=O)COc1ccc2ccccc2c1)B1O[C@@H]2C[C@@H]3C[C@@H](C3(C)C)[C@]2(C)O1 [D.3.27, 2-[(Naphthalen-2-yl)oxy]acetamide,N-[(1S)-1-[[[(1R)-1-[(3aS,4S,6S,7aR)-hexahydro-3a,5,5-trimethyl-4,6-methano-1,3,2-benzodioxaborol-2-yl]-3-methylbutyl]amino]carbonyl]-4-[[imino(nitroamino)methyl]amino]butyl]] | < 200 | < 10
CC(C)C[C@H](NC(=O)[C@H](CCCNC(=N)N[N+](=O)[O-])NC(=O)CCCCCNS(=O)(=O)c1ccccc1)B1O[C@@H]2C[C@@H]3C[C@@H](C3(C)C)[C@]2(C)O1 [D.1.12, 6-Benzenesulfonylaminohexanamide,N-[(1S)-1-[[[(1R)-1-[(3aS,4S,6S,7aR)-hexahydro-3a,5,5-trimethyl-4,6-methano-1,3,2-benzodioxaborol-2-yl]-3-methylbutyl]amino]carbonyl]-4-[[imino(nitroamino)methyl]amino]butyl]] | 200 to 2000 | < 10
CC(C)C[C@H](NC(=O)[C@H](CCCNC(=N)N[N+](=O)[O-])NC(=O)CSc1ncccn1)B1O[C@@H]2C[C@@H]3C[C@@H](C3(C)C)[C@]2(C)O1 [D.3.137] | 2000 to 10000 | < 100
CC(C)C[C@H](NC(=O)[C@H](CCCNC(=N)N[N+](=O)[O-])NC(=O)CCCCc1ccc(F)cc1)B(O)O [D.7.20, Boronic acid, [(1R)-1-[[(2S)-5-[[imino(nitroamino)methyl]amino]-2-[[5-(4-fluorophenyl)pentanoyl]amino]-1-oxopentyl]amino]-3-methylbutyl]] | 2000 to 10000 | < 10

Continued, values first:

EC50 [1] [nM] | IC50 [2] [nM] | Compound
2000 to 10000 | < 10 | COc1ccc2cc([C@H](C)C(=O)N[C@@H](CCCNC(=N)N[N+](=O)[O-])C(=O)N[C@@H](CC(C)C)B(O)O)ccc2c1 [D.7.33, Boronic acid, [(1R)-1-[[(2S)-5-[[imino(nitroamino)methyl]amino]-2-[[(2S)-2-(6-methoxynaphthalen-2-yl)-propanoyl]amino]-1-oxopentyl]amino]-3-methylbutyl]]
200 to 2000 | < 10 | CCCCC(CC)CCC(=O)N[C@@H](CCCNC(=N)N[N+](=O)[O-])C(=O)N[C@@H](CC(C)C)B(O)O (mixture of isomers) [E.2.23, Boronic acid, [(1R)-1-[[(2S)-5-[[imino(nitroamino)methyl]amino]-2-[((RS)-4-ethyloctanoyl)amino]-1-oxopentyl]amino]-3-methylbutyl]]
> 10000 | < 10 | CC(C)C[C@H](NC(=O)[C@H](CCCNC(=N)N[N+](=O)[O-])NC(=O)CCc1ccccc1)B(O)O [E.2.32, Boronic acid, [(1R)-1-[[(2S)-5-[[imino(nitroamino)methyl]amino]-2-[(3-phenylpropanoyl)amino]-1-oxopentyl]amino]-3-methylbutyl]]
> 10000 | < 100 | CC(C)C[C@H](NC(=O)[C@H](CCCNC(=N)N[N+](=O)[O-])NC(=O)Cn1cnnn1)B(O)O [E.2.53, Boronic acid, [(1R)-1-[[(2S)-5-[[imino(nitroamino)methyl]amino]-2-[[2-(tetrazol-1-yl)acetyl]amino]-1-oxopentyl]amino]-3-methylbutyl]]
2000 to 10000 | < 10 | CC(C)C[C@H](NC(=O)[C@H](CCCNC(=N)N[N+](=O)[O-])NC(=O)c1ccc(C(C)(C)C)cc1)B(O)O [E.2.8, Boronic acid, [(1R)-1-[[(2S)-5-[[imino(nitroamino)methyl]amino]-2-[(4-(1,1-dimethylethyl)benzoyl)amino]-1-oxopentyl]amino]-3-methylbutyl]]
< 200 | < 10 | CCCCc1ccc(C(=O)N[C@@H](CNC(=O)Nc2ccccc2)C(=O)N[C@@H](CC(C)C)B(O)O)cc1 [E.5.19, Boronic acid, [(1R)-1-[[(2S)-3-(3-phenylureido)-2-(4-butylbenzoylamino)-1-oxopropyl]amino]-3-methylbutyl]]
< 200 | < 10 | CCCCc1ccc(C(=O)N[C@@H](CNC(=O)c2cccnc2)C(=O)N[C@@H](CC(C)C)B(O)O)cc1 [E.5.18, Boronic acid, [(1R)-1-[[(2S)-3-(nicotinoylamino)-2-[(4-butylbenzoylamino)]-1-oxopropyl]amino]-3-methylbutyl]]
< 200 | < 10 | CC(C)C[C@H](NC(=O)[C@@H](NC(=O)c1ccc(-c2ccccc2)cc1)[C@@H](C)O)B1O[C@@H]2C[C@@H]3C[C@@H](C3(C)C)[C@]2(C)O1 [D.8.6, 4-Phenylbenzamide, N-[(1S,2R)-1-[[[(1R)-1-[(3aS,4S,6S,7aR)-hexahydro-3a,5,5-trimethyl-4,6-methano-1,3,2-benzodioxaborol-2-yl]-3-methylbutyl]amino]carbonyl]-2-hydroxypropyl]]
> 10000 | < 10 | CC(C)C[C@H](NC(=O)[C@H](CCCNC(=N)N[N+](=O)[O-])NC(=O)Cc1ccccc1)B(O)O [E.2.36, Boronic acid, [(1R)-1-[[(2S)-5-[[imino(nitroamino)methyl]amino]-2-[(2-phenylacetyl)amino]-1-oxopentyl]amino]-3-methylbutyl]]
